Assay [1] concerns Cryptococcus neoformans. The experiment in a line: Antifungal activity against Cryptococcus neoformans H99 expressing PCTR4-2/FAS1 assessed as reduction in viable cells at 8 ug/ml after 72 hrs in presence of CuSO4 relative to CuSO4 alone. In kind it is functional.
Assay [2] has as its system Cryptococcus neoformans. The assay can be described thus: Fungicidal activity against Cryptococcus neoformans H99 expressing PCTR4-2/FAS2 after 72 hrs in presence of CuSO4. It is filed as functional, organism-based.
In assay [3] the test system is Cryptococcus neoformans. The assay can be described thus: Antifungal activity against Cryptococcus neoformans H99 expressing PCTR4-2/FAS2 assessed as logarithmic reduction in viable cells at 8 ug/ml in presence of bathocuproinedisulfonic acid. In kind it is functional.
Assay [4] has as its system Cryptococcus neoformans. The assay can be described thus: Antifungal activity against Cryptococcus neoformans H99 expressing PCTR4-2/FAS1 assessed as logarithmic reduction in viable cells at 8 ug/ml in presence of bathocuproinedisulfonic acid. In kind it is functional.

Activity calls are given as the source filed them. The calls are words filed in the database; no cut-off is given here.

The text below walks through data of ChEMBL document CHEMBL1152826, “Fatty acid synthesis is essential for survival of Cryptococcus neoformans and a potential fungicidal target” (2007).

As for `OC(Cn1cncn1)(Cn1cncn1)c1ccc(F)cc1F` [FLUCONAZOLE], the “fold change (FC)” value in the assay on Cryptococcus neoformans [1] is on record as 100. In the assay on Cryptococcus neoformans [2], the result was Active. For the same compound, the Activity with Cryptococcus neoformans [3] and in the assay on Cryptococcus neoformans [4] was 0.5 in each case.
